Measured values published in patent US20200181089A1, “4-ANILINO-QUINOLINE COMPOUNDS AS ANTI-CANCER AGENTS” (INSERM (INSTITUT NATIONAL DE LA SANTÉ ET DE LA RECHERCHE …, priority 2016, published 2020).
Where two headings read alike, the source gives them in different places.

Tests used:
[1] = system: normal human melanocytes or fibroblasts; assay: Proliferation of normal human melanocytes or fibroblasts; type: cell-based
[2] = system: A375 cells; assay: A375 cell proliferation assay (trypan blue exclusion); type: cell-based; conditions: Homo sapiens, A-375, treated/untreated cell number; for activity at 1 µM: A375, 1 μM; for activity at 10 µM: A375, 10 μM
Procedure: Cells were counted using a Malassez chamber. The average and standard deviation were calculated from triplicate experiments. Antiproliferative effects were evaluated by trypan blue exclusion assay. Briefly, cells were seeded into 12-well plate and grown in media supplemented with indicated compound at 1 or 10 μM for 48 h or 96 h. Cells were washed with PBS and detached by trypsinization, collected and colored by trypan blue. Dead and living cells were counted and proliferation was calculated as follow: Proliferation (%)=[(treated cell number/untreated cells number)*100].

[3] = system: B16 melanoma cells; assay: Established subcutaneous B16 melanoma in C57Bl6 mice; type: in vivo
Procedure: FIG. 3. Compound 5 treatment is effective when used alone in reducing tumor growth in vivo and potentiates the anti-PD1 immune response in C57Bl6 mice subcutaneously injected with B16 melanoma cells. B16 cells were injected subcutaneously and the tumors were let to grow until an average volume of 100 mm^3 was reached. The mice were then sorted into four groups with similar average tumor volume and standard deviation. Treatment with compound 5 (10 mg/kg) or control (DMSO) was given by intraperitoneal injection every day. Anti-PD1 antibodies (125 μg/mouse) was given every other day alone or combined with daily injection of compound 5. Number of mice for each treatment group=8.
(§1) 0.5×10^6 cells in 100 μL PBS were subcutaneously injected into 4-week-old female C57Bl/6 mice (for the B16 experiment) or Balb/c mice (for the CT26 experiments). DZNEP is an inhibitor of the catalytic activity of EZH2 and was used as an additional control.
The inventors then asked whether compound 5 was able to increase the survival rate of mice with already established tumor and, if that was the case, also in this situation was able to synergize with anti-PD1 treatment. They thus decided to use the model B16 melanoma cells in C57Bl6 mice. B16 cells were again injected subcutaneously and the tumors were let to grow until an average volume of 100 mm3 was reached. […]

[4] = system: EZH2 transcription; assay: Ability to decrease EZH2 mRNA level in A375 (dose-response, quantitative PCR); type: cell-based; conditions: Homo sapiens, A-375, 96 h; A375 cells, incubated 4 days; read-out: IC50 (concentration necessary to obtain 50% of EZH2 transcription activity)
Procedure: Typically, 30000-50000 cells were plated in six-well culture plates and incubated 24 h later with increasing concentration of NIK inhibitors or vehicle. Cells were incubated with the inhibitors for 4 days prior to harvesting for RNA extraction and PCR. Total RNA was isolated from cells using the RNAeasy minikit (Qiagen) according to the manufacturer's procedure. Reverse transcription was performed using the AMV reverse transcription system (Promega), and quantitative PCR was performed with Power Sybr green (Applied Biosystems, Life Technologies, Grand Island, N.Y.) following the manufacturer's instructions. The PCR was carried out on a Step One plus Real-Time PCR system (Applied Biosystems). All analyses were done in triplicate, and a melting curve analysis was performed to control for product quality and specificity. Expression levels were calculated using the comparative method of relative quantification, with SB34 as a normalizer. The data were analyzed for statistical significance using Student's t-test. The results are presented as the mean±SEM relative to the control. Primers were obtained from primer bank or primer depot (http://pga.mgh.harvard.edu/primerbank/, https://primerdepot.nci.nih.gov), and their specificity was verified using primer blast (http://www.ncbi.nlm.nih.gov/tools/primer-blast/).
Here IC50 represents the concentration necessary to obtain 50% of EZH2 transcription activity.

[5] = Tolerability in treated CT26 tumor-bearing mice; type: in vivo; conditions: 10 mg/kg intraperitoneal
Procedure: In order to evaluate the new approach in different types of cancer, compound 5 was tested in colorectal cancer cells. CT26 cells were subcutaneously injected into syngeneic mice. After 3 days, the mice were treated intraperitoneally with DZNEP, compound 5, and anti-PD1 as monotherapies and combined. Additional treatments in which the mice received DZNEP or compound 5 plus anti-PD1 with an anti-CD8 antibody added to neutralize the T-cell response were included. […] Signs of tumor regression and tumor-free mice were even observed. […] The number of M1 macrophages and the percentage of M1 macrophages among the total macrophage population were increased in all the treated mice, especially in the mice that received the combination treatments (FIG. 2C). Each of the treatments increased the numbers and activation of DCs and the numbers of CD8+ and CD4+ cells infiltrating the tumors (FIG. 2D). […] Finally, CD3+ T-cells were isolated by negative selection from the spleens of the treated mice and cocultured with naïve CT26 cells.

[6] = system: normal human melanocyte; assay: Melanocyte viability assay (trypan blue exclusion); type: cell-based; conditions: 96 h
Procedure: (§2) Cell viability effects were evaluated by trypan blue exclusion assay. Briefly, cells were seeded into 12-well plate and grown in media supplemented with indicated compound at 10 μM for 96 h. Cells were washed with PBS and detached by trypsinization, collected and colored by trypan blue. Dead and living cells were counted and cell viability was calculated as follow: Viability (%)=100−[(dead cell number/total cells)*100].

[7] = system: normal human fibroblast; assay: Fibroblast viability assay (trypan blue exclusion); type: cell-based; conditions: 96 h
Procedure: as §2

[8] = system: CT26 colon-cancer cells; assay: Subcutaneous CT26 colon-cancer tumors in Balb/c mice; type: in vivo; conditions: compound 5 10 mg/kg, DZNEP 1 mg/kg, FIG. 2A
Procedure: A. Tumor progression in Balb/c mice subcutaneously injected with CT26 cells (0.5×10^6). After 3 days, treatment with compound 5 (10 mg/kg) or DMSO was given by intraperitoneal injection every other day starting 3 days after the first injection. Two groups of mice (with either DMSO or compound 5 treatment) were treated with anti-PD1 antibody injected subcutaneously every other day. Number of mice for each treatment group=10.
as §1
1 mg/kg DZNEP and 10 mg/kg compound 5 were used for the subsequent experiments. Tridimensional measurements were performed daily, and the tumor volume was expressed as mm^3. […] The T-cells were stained with CD8, perforin, and granzyme B antibodies and analyzed immediately by flow cytometry using a MACS-Quant Analyzer (Miltenyi Biotec, Paris, France).
Tumors were extracted and disaggregated using […] strainers. […] FoxP3 was detected by cell intranuclear staining employing the BD Pharmingen™ Mouse Foxp3 Buffer Set according to the manufacturer's instructions. IFN-γ, perforin, and granzyme B were detected by intracellular staining using the BD Cytofix/Cytoperm™ Kit following the manufacturer's instructions. […]

[9] = system: CT26 cells; assay: Spleen CD3+ T-cells of treated mice cocultured with naïve CT26 cells; type: in vivo; conditions: coculture 24 or 48 h
Procedure: 1 mg/kg DZNEP and 10 mg/kg compound 5 were used for the subsequent experiments. Tridimensional measurements were performed daily, and the tumor volume was expressed as mm^3. […] Freshly collected tumors were dissociated and stained for immune-cell infiltrate using a flow cytometer. CD3+ T cells from spleen tissue were negatively selected using myltennyi magnetic columns and put in contact with naïve CT26 cells for 24 or 48 h. The CT26 cells were subsequently stained with DAPI (0.5 μg/ml, Molecular Probes, Grand Island, N.Y., USA). The T-cells were stained with CD8, perforin, and granzyme B antibodies and analyzed immediately by flow cytometry using a MACS-Quant Analyzer (Miltenyi Biotec, Paris, France).
Spleens were extracted and disaggregated, and the cells were resuspended in PBS. T-cells were isolated by CD3 negative selection to avoid activation. […] The flow-through containing the enriched fraction of CD3 cells was collected and analyzed by flow cytometry to determine the yield of the enrichment (CD3 cells constituted a minimum 70% of the total cells collected).

| SMILES | proliferation of normal human melanocytes or fibroblasts [1] | activity at 1 µM ([2]; 48 h, read-out: Proliferation (%) At 1 μM - 48 H) [%] | activity at 1 µM ([2]; 96 h, read-out: Proliferation (%) At 1 μM - 96 H) [%] | activity at 10 µM ([2]; 48 h, read-out: Proliferation (%) At 10 μM - 48 H) [%] | activity at 10 µM ([2]; 96 h, read-out: Proliferation (%) At 10 μM - 96 H) [%] | death dependent from treatment ([3]; B16 experiment) | median survival ([3]; days from injection, treatment started at tumor volume 100 mm3, control 13 days) [days] | IC50 [4] [µM] | clinical signs of toxicity [5] | liver enzymes in the blood [5] | liver weight and systemic glycemia compared to the other mice [5] | Viability (%) at 10 μM Melanocyte [6] [%] | Viability (%) at 10 μM Fibroblast [7] [%] | growth of the CT26 tumors [8] | killing of naïve CT26 cells by T-cells isolated from treated mice [9] |
| --- | --- | --- | --- | --- | --- | --- | --- | --- | --- | --- | --- | --- | --- | --- | --- |
| COc1ccc(Nc2ccnc3cc(Cl)ccc23)cc1 [Compound 5, 4-((4-methoxyphenyl)amino)-7-chloroquinolinium chloride] | Neither treatment had any effect | 91 | 77.1 | 67.5 | 58.1 | no death dependent from compound 5 treatment was observed | 20 | 5 | no clinical signs of toxicity | remained in the normal range | similar | 99.5 | 98.6 |  |  |
| Nc1nccc2c1ncn2C1C=C(CO)C(O)C1O (stereo not drawn) [DZNEP] |  |  |  |  |  |  |  |  |  |  |  |  |  | significantly reduced | more effective in killing CT26 cells |
